Data: patent US20240307350A1, “5-METHOXY-N,N-DIMETHYLTRYPTAMINE (5-MEO-DMT) FOR TREATING DEPRESSION” (GH RESEARCH IRELAND LIMITED, priority 2019, published 2024)
Where two headings read alike, the source gives them in different places.

Legend:
[1] = Clinical trial in healthy volunteers: 5-MeO-DMT and bufotenine plasma levels; format: in vivo, human; details: human, plasma, inhaled, read-out: 5-MeO-DMT plasma levels, group median; for concentration at 1 h: 1 hour after administration; for concentration at 3 h: 3 hours after administration
Experimental: (§1) A clinical trial was performed in which 5-MeO-DMT free base (purity not less than 99%) at different dose levels was administered via inhalation (as described in Example 1) in a single day to healthy volunteers who had prior experiences with the use of synthetic or naturally-occurring psychedelics. The trial was reviewed and approved by the relevant national competent authority and local medical ethics committee. The trial consisted of two parts: Part A, where single doses of 5-MeO-DMT dosage amounts of 2 mg, 6 mg, 12 mg and 18 mg were administered; and Part B, where an initial 5-MeO-DMT dosage amount of 6 mg was administered, and then, unless the participant had already experienced a peak psychedelic experience based on the PPEQ or the supervising physician had decided that further dose increases were inappropriate based on observed side effects, further subsequent dosage amounts of 12 mg and 18 mg were administered with about 3 hours in between each administration. Participants in Part A only received one dose and were not allowed to receive higher doses in later parts of Part A and were not allowed to participate in Part B. Participants were closely monitored for 3.5 hours after the last dose, with additional follow-up visits 1 day and 7 days after dosing. Various safety related measures (e.g., adverse event reporting, safety laboratory analyses, vital signs, ECG, CADSS, PVT, DSST, Prospective Memory Task (PMT)) as well as measures of the intensity of the psychedelic effects (MEQ30, ASC, PPEQ, subjective description of the psychedelic experience) were recorded. Pharmacokinetic analysis of 5-MeO-DMT and bufotenine plasma levels was performed at 1 hour and 3 hours after drug administration in Part A, and at 3 hours after drug administration in Part B.

[2] = tested on: healthy volunteers; test: Clinical trial in healthy volunteers: intensity of the psychedelic effects (PPEQ); format: in vivo, human; details: for PPEQ Intensity (0-100) / PPEQ Loss of Control (0-100) / PPEQ Profoundness (0-100) / PPEQ Total Score (0-100): group average
Experimental: as §1
18 participants were recruited into Part A of the study and 4 participants were recruited into Part B. 9 Participants were female and 13 participants were male. Median age was 29 years (range: 19 to 42 years). In Part A, 4 participants received 2 mg, 6 participants received 6 mg, 4 participants received 12 mg and 4 participants received 18 mg of 5-MeO-DMT. In Part B, 1 participant received 6 mg, 2 participants received 6 mg and then 12 mg and one participant received 6 mg, 12 mg and then 18 mg of 5-MeO-DMT.
The Peak Psychedelic Experience Questionnaire (PPEQ) has been developed by the inventor as an improved alternative to the oceanic boundlessness dimension of the ASC and the MEQ30 to allow a simpler and quicker assessment of the intensity of a psychedelic experience. The PPEQ is comprised of three questions, all to be scored from 0 to 100 by marking a Visual Analogue Scale between 0 and 100 mm: • 1. How intense was the experience? • 2. To what extent did you lose control? • 3. How profound (i.e., deep and significant) was the experience?
The PPEQ Total Score is the average of the scores of the three questions. A “peak psychedelic experience” is identified through achievement of a PPEQ Total Score of at least 75. A statistically significant correlation between the PPEQ Total Score and the oceanic boundlessness dimension of the ASC, respectively the MEQ30 Total Score, has been observed in the data set described in Example 3.

[3] = Part B max. dose (n = 4), highest dose for each participant (6, 12 or 18 mg)

SMILES: COc1ccc2[nH]cc(CCN(C)C)c2c1 [5-MeO-DMT, 5-methoxy-N,N-dimethyltryptamine]
- concentration at 1 h ([1]; 2 mg, Part A 2 mg (n = 4), range 0.03-0.69): 0.38 ng/mL
- concentration at 3 h ([1]; 2 mg, Part A 2 mg (n = 4), range 0.01-0.04): 0.03 ng/mL
- concentration at 1 h ([1]; 6 mg, Part A 6 mg (n = 6), range 0.09-0.64): 0.33 ng/mL
- concentration at 3 h ([1]; 6 mg, Part A 6 mg (n = 6), range 0.00-0.06): 0.02 ng/mL
- concentration at 3 h ([1]; 6 mg, Part B 6 mg (n = 4), range 0.00-0.09): 0.01 ng/mL
- concentration at 1 h ([1]; 12 mg, Part A 12 mg (n = 4), range 0.13-0.29): 0.19 ng/mL
- concentration at 3 h ([1]; 12 mg, Part A 12 mg (n = 4), range 0.01-0.01): 0.01 ng/mL
- concentration at 1 h ([1]; 18 mg, Part A 18 mg (n = 4), range 0.15-2.42): 0.65 ng/mL
- concentration at 3 h ([1]; 18 mg, Part A 18 mg (n = 4), range 0.01-0.24): 0.04 ng/mL
- concentration at 3 h ([1]; Part B 6 mg, 12 mg (n = 3), range 0.01-0.05): 0.03 ng/mL
- concentration at 3 h ([1]; Part B 6 mg, 12 mg, 18 mg (n = 1), range 0.05-0.05): 0.05 ng/mL
- PPE achieved (fraction of participants who achieved a PPEQ Total Score of at least 75) ([2]; Part A 2 mg (n = 4)): 0/4
- PPEQ Intensity (0-100) ([2]; Part A 2 mg (n = 4)): 16
- PPEQ Loss of Control (0-100) ([2]; Part A 2 mg (n = 4)): 4
- PPEQ Profoundness (0-100) ([2]; Part A 2 mg (n = 4)): 7
- PPEQ Total Score (0-100) ([2]; Part A 2 mg (n = 4)): 9.0
- PPE achieved (fraction of participants who achieved a PPEQ Total Score of at least 75) ([2]; Part A 6 mg (n = 6)): 1/6
- PPEQ Intensity (0-100) ([2]; Part A 6 mg (n = 6)): 53
- PPEQ Loss of Control (0-100) ([2]; Part A 6 mg (n = 6)): 37
- PPEQ Profoundness (0-100) ([2]; Part A 6 mg (n = 6)): 42
- PPEQ Total Score (0-100) ([2]; Part A 6 mg (n = 6)): 43.8
- PPE achieved (fraction of participants who achieved a PPEQ Total Score of at least 75) ([2]; Part A 12 mg (n = 4)): 2/4
- PPEQ Intensity (0-100) ([2]; Part A 12 mg (n = 4)): 78
- PPEQ Loss of Control (0-100) ([2]; Part A 12 mg (n = 4)): 69
- PPEQ Profoundness (0-100) ([2]; Part A 12 mg (n = 4)): 51
- PPEQ Total Score (0-100) ([2]; Part A 12 mg (n = 4)): 65.5
- PPE achieved (fraction of participants who achieved a PPEQ Total Score of at least 75) ([2]; Part A 18 mg (n = 4)): 1/4
- PPEQ Intensity (0-100) ([2]; Part A 18 mg (n = 4)): 62
- PPEQ Loss of Control (0-100) ([2]; Part A 18 mg (n = 4)): 80
- PPEQ Profoundness (0-100) ([2]; Part A 18 mg (n = 4)): 36
- PPEQ Total Score (0-100) ([2]; Part A 18 mg (n = 4)): 59.2
- PPE achieved (fraction of participants who achieved a PPEQ Total Score of at least 75) [2, 3]: 4/4
- PPEQ Intensity (0-100) [2, 3]: 97
- PPEQ Loss of Control (0-100) [2, 3]: 94
- PPEQ Profoundness (0-100) [2, 3]: 78
- PPEQ Total Score (0-100) [2, 3]: 89.3
- first psychedelic symptoms after the inhalation (onset) ([2]; all participants, 2 mg to 18 mg via inhalation): within a few seconds
